Test results from patent publication US11471504B2, “Combination therapy for the treatment of cancer” (Yeda Research and Development Co. Ltd., priority 2017, dated 2022).
Entries after “also recorded” stand apart in the source; their conditions may differ. Residues, ends and D or L forms follow the SMILES beside them. *: point of attachment. Myristoyl = CCCCCCCCCCCCCC(=O)*

What was measured:
melanoma cell lines = assay: Cell viability assay (CellTiter-Glo), panel of melanoma cell lines; format: cell-based, human; details: 36 melanoma cell lines, peptide 10 μM, 72 h
[1] = system: 83T NRAS mutant melanoma cells; assay: Cell viability assay (CellTiter-Glo), 83T; format: cell-based, human; details: 10 μM, 72 h
Procedure: (§1) (B) Effect of BRAF inhibitor vemurafenib on selected melanomas. […] All melanoma cells selected were resistant to BRAF inhibition.
(§2) Dots represent triplicates for every concentration point. […] Viable cells were quantified using CellTiter-Glo reagent. […] Quantified levels are given under the blots. ImageJ was used for the quantification.
(§3) All cell lines have tested negative for mycoplasma.
(§4) IC50 values were determined using GraphPad Prism.

[2] = system: 120T NRAS mutant melanoma cells; assay: Cell viability assay (CellTiter-Glo), 120T; format: cell-based, human; details: 10 μM, 72 h
[3] = system: 110T NRAS mutant melanoma cells; assay: Cell viability assay (CellTiter-Glo), 110T; format: cell-based, human; details: 10 μM, 72 h
Procedure: as §1, §2, §3, §4

[4] = system: 39T NF1 mutant melanoma cells; assay: Cell viability assay (CellTiter-Glo), 39T; format: cell-based, human; details: 10 μM, 72 h
[5] = system: nuclear translocation of ERK1/2; assay: ERK1/2 nuclear translocation, fluorescence microscopy, EPE-sensitive NRAS melanomas (63T, 83T, 120T, 60T); format: cell-based, human; details: EPE-sensitive cells; serum starved, peptide 10 μM 2 h, TPA 100 nM 15 min
Procedure: (§5) FIGS. 2A-B: The EPE peptide blocks the nuclear translocation in “sensitive” NRAS melanomas. The same seven cell lines selected previously, were serum starved (14 h), pre-treated with EPE or Scr peptide […], and stimulated with TPA (100 nM, 15 min) or left untreated (NS). Cells were then fixed and stained with αERK2 Abs and DAPI. […] (B) The effect of EPE peptide on the nuclear translocation of ERK1/2 is modest in resistant cells compared to (A). Bars represent average percentage of cells with mostly nuclear (N, red), nuclear and cytosolic (NC, black) or mostly cytosolic (C, white) staining. Error bars represent standard error of 2 or 3 independent experiments. Quantification was done by counting at least three fields with >150 cells.
(§6) Fluorescence microscopy: Cells were seeded on coverslips coated with 0.001% w/v poly-L-Lysine (PLL) at 60% confluency. After treatments, cells were fixed in 4% paraformaldehyde/PBS^−/− for 20 min on ice surface, permeabilized with 0.1% Triton X-100/PBS^−/− for 5 min at 23° C., then blocked in 2% BSA/PBS^−/− for 30 min at 23° C. […] Slides were analyzed and photographed by a fluorescence microscope (Olympus BX51, x40). […]

[6] = system: nuclear translocation of ERK1/2; assay: ERK1/2 nuclear translocation, fluorescence microscopy, EPE-resistant melanomas (110T, 39T, 103T); format: cell-based, human; details: EPE-resistant cells; serum starved, peptide 10 μM 2 h, TPA 100 nM 15 min
Procedure: as §5, §6

ERK1/2 signaling [7] = assay: Western blot of ERK1/2 signaling, EPE-sensitive NRAS melanomas (60T, 83T); format: cell-based, human; details: EPE-sensitive cells, 10 μM 2 h
Procedure: (§7) FIGS. 3A-B: The EPE peptide reduces phosphorylation of nuclear targets in NRAS mutant melanomas. Two NRAS melanomas sensitive to EPE peptide (60T an 83T), and two EPE-resistant melanomas (39T and 103T), were serum starved (16 h), pretreated with EPE or Scr peptides (10 μM, 2 h), and stimulated with TPA (100 nM, 15 min) (+) or left untreated (−). […] (A) (Left) In the EPE-sensitive cells, the peptide reduced the phosphorylation of nuclear targets Elk1 and c-Myc in stimulated and basal state, while not affecting cytosolic target RSK. […] (B) Quantification of bands in (A). Bars represent average band density ratio of EPE stimulated samples (EPE+) compared to Scr stimulated samples (Scr+), ±S.E. of 2 or 3 independent experiments. Bands were quantified using ImagJ.
(§8) Quantification of blots was done using ImageJ.

ERK1/2 signaling [8] = assay: Western blot of ERK1/2 signaling, EPE-resistant melanomas (39T, 103T); format: cell-based, human; details: EPE-resistant cells, 10 μM 2 h
Procedure: as §7, §8

[9] = system: 63T NRAS mutant melanoma cells; details: 10 µM
Procedure: (§9) (A) Effect of the EPE peptide on proliferation of metastatic melanoma cells. Thirty-six melanoma cell lines derived from metastatic tumor resections were treated with either EPE or scrambled (Scr) peptides (10 μM). […] Cell viability was measured by CellTiter-Glo reagent after 72 h of treatment. Bars represent percentage of growth respect to Scr peptide control ±S.E. of 3 independent experiments.
(§10) Pathology-confirmed melanoma cell lines were derived from mechanically or enzymatically dispersed tumor cells, which were then cultured in RPMI-1640 supplemented with 10% FBS at 37° C. in 5% CO2 for 5-15 passages. All cell lines have tested negative for mycoplasma.
(§11) Cell viability assay: Cells were seeded at a density of 4000 cells per well into 96-well plates in complete medium. After 24 h, medium was replaced by 1% FCS containing appropriate treatments. Fresh medium containing the same agents was replaced every day. After 96 h, cell proliferation was assessed using the CellTiter-Glo reagent (Promega). IC50 values were determined using GraphPad Prism.

[10] = system: 60T NRAS mutant melanoma cells; details: 10 µM
Procedure: as §9, §10, §11

[11] = system: cancer cell types, BRAF melanomas; details: cited from earlier work
[12] = system: interaction of Importin7 with ERK1/2; details: cited from earlier work
[13] = system: BRAF and MEK inhibitor-resistant models; details: cited from earlier work

For `CCCCCCCCCCCCCC(=O)NCC(=O)N[C@@H](CCC(N)=O)C(=O)N[C@@H](CC(C)C)C(=O)N[C@@H](CC(N)=O)C(=O)N[C@@H](Cc1c[nH]cn1)C(=O)N[C@H](C(=O)N[C@@H](CC(C)C)C(=O)NCC(=O)N[C@H](C(=O)N[C@@H](CC(C)C)C(=O)NCC(=O)N[C@@H](CCC(=O)O)C(=O)N1CCC[C@H]1C(=O)N[C@@H](CCC(=O)O)C(=O)N[C@@H](CCC(N)=O)C(=O)N[C@@H](CCC(=O)O)C(=O)N[C@@H](CC(=O)O)C(=O)N[C@@H](CC(C)C)C(N)=O)[C@@H](C)CC)[C@@H](C)CC` [EPE peptide] (Myristoyl-GQLNHILGILGEPEQEDL-NH2), the “sensitivity of metastatic melanoma cell lines to the EPE peptide (viability vs Scr peptide)” value (melanoma cell lines) was “A subset of BRAF, NRAS and NF1 mutant melanomas were sensitive”, the “sensitivity to the EPE peptide (percentage of viability compared to Scr peptide control)” value [1] was “sensitive” and the “sensitivity to the EPE peptide (percentage of viability compared to Scr peptide control)” value [2] was “sensitive”. For the same molecule, the “sensitivity to the EPE peptide (percentage of viability compared to Scr peptide control)” value [3] was “resistant (resistant (above 80%))”, the “sensitivity to the EPE peptide (percentage of viability compared to Scr peptide control)” value [4] was “resistant (resistant (above 80%))” and the “effect on stimulated nuclear translocation of ERK1/2” value [5] was “disrupted; also recorded: significantly reduces”. The “effect on stimulated nuclear translocation of ERK1/2” value [6] was “disrupted; also recorded: modest”, the “activity of ERK1/2 (phosphorylation of activatory TEY motif and substrate RSK)” value (ERK1/2 signaling [7]) was “did not inhibit” and the “phosphorylation of cytosolic target RSK” value (ERK1/2 signaling [7]) was “not affecting”. The “phosphorylation of nuclear target Elk1” value (ERK1/2 signaling [7]; basal and TPA-stimulated) was “reduced”, the “phosphorylation of nuclear target c-Myc” value (ERK1/2 signaling [7]; basal and TPA-stimulated) was “reduced” and the “activity of ERK1/2 (phosphorylation of activatory TEY motif and substrate RSK)” value (ERK1/2 signaling [8]) was “did not inhibit”. For the same molecule, the “phosphorylation levels of c-Myc” value (ERK1/2 signaling [8]) was “slightly increased”, the “phosphorylation of Elk1” value (ERK1/2 signaling [8]) was “no effect” and the “phosphorylation of RSK” value (ERK1/2 signaling [8]) was “no effect”. For the same molecule, the “sensitivity to the EPE peptide (percentage of viability compared to Scr peptide control)” value [9] was “sensitive”, the “sensitivity to the EPE peptide (percentage of viability compared to Scr peptide control)” value [10] was “sensitive” and the apoptosis ([11]; BRAF melanomas) was “induces apoptosis”. For the same molecule, the “proliferation of cancer cell types” value ([11]; several cancer cell types) was “inhibit the proliferation” and the “interaction of Importin7 with ERK1/2 and nuclear translocation of ERK1/2” value [12] was “inhibited”.

For `O=C(Nc1ccc2[nH]nc(-c3ccncc3)c2c1)[C@@H]1CCN(CC(=O)N2CCN(c3ccc(-c4ncccn4)cc3)CC2)C1` [SCH772984], the tumor growth [13] is given as “showed benefits in reducing tumor growth”.
